Test results: PubChem BioAssay AID1259334 (Broad Institute, 2017)
The source made the active and inactive calls. No stated cut-off is given here; in the data, active means AC50 below about 11 µM.

system: B cell line, TNFa signaling counterscreen reporter; experiment: TNFa pathway inhibition counter-screen, B-lineage cells – dose response (AID 1259334);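 further: cells stimulated with TNFa after compound preincubation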

SMILES | AC50
COc1c(O)cc2oc3cc(O)c(CC=C(C)C)c(O)c3c(=O)c2c1CC=C(C)C | 3.15 µM
NC(=O)c1c(Br)n(C2OC(CO)C(O)C2O)c2ncnc(N)c12 (configuration not stated) | 1.5 µM
CN1C(=O)/C(=N\OC(=O)c2cccc3ccccc23)c2ccccc21 | 1.85 µM
Cc1noc(C)c1S(=O)(=O)Nc1ccc2c(c1)CC(=O)N([C@@H](C)CO)C[C@@H](C)[C@@H](CN(C)Cc1ccc(Oc3ccccc3)cc1)O2 | 7.01 µM
COc1ccc(-c2ccc([C@H]3[C@@H](C#N)N(C(=O)c4cccc(F)c4)[C@H]3CO)cc2)cc1 | > 22 µM (inactive)
CCN(CC)CCCNc1nc2ccccc2c2[nH]c3ccc(OC)cc3c12 | 2.11 µM
CC(C)=CCc1c2c(c3occ(-c4ccc(O)c(O)c4)c(=O)c3c1O)C=CC(C)(C)O2 | 8.15 µM
Cc1ccc2nc(C(F)(F)F)c(C#N)c(N)c2c1 | 7.61 µM
COc1ccc(Cl)cc1NC(=O)Nc1cc(C)nc2ccccc12 | > 20 µM (inactive)
CCC(C)[C@H]1O[C@]2(CC[C@@H]1C)C[C@@H]1C[C@@H](C/C=C(\C)[C@@H](OC3C[C@H](OC)C(O[C@H]4C[C@H](OC)[C@@H](O)[C@H](C)O4)[C@H](C)O3)[C@@H](C)/C=C/C=C3\CO[C@@H]4[C@H](O)C(C)=C[C@@H](C(=O)O1)[C@]34O)O2 (some centres not stated) | > 20 µM (inactive)
CSC1SCC2C(=O)N(C)C(C(C)C)C(=O)OCC(NC(=O)c3cnc4ccccc4n3)C(=O)NC(C)C(=O)N(C)C1C(=O)N(C)C(C(C)C)C(=O)OCC(NC(=O)c1cnc3ccccc3n1)C(=O)NC(C)C(=O)N2C (configuration not stated) | < 0.0005 µM
C[C@H]1CN([C@@H](C)CO)C(=O)c2c(c3ccccc3n2C)-c2ccccc2CO[C@@H]1CN(C)C(=O)Nc1cccc(C(F)(F)F)c1 | 9.38 µM
CC1CC(C)C(=NNC(N)=O)C(C(O)CC2CCC(=O)NC2=O)C1 (configuration not stated) | 0.188 µM
COc1cc(/C=N/n2cnnc2)ccc1OC(=O)c1ccncc1 | 8.26 µM
O=C1NC2C(O)C(O)C(O)C(O)C2c2cc3c(c(O)c21)OCO3 (configuration not stated) | 0.125 µM
CC1(C)C(=O)C=C[C@@]2(C)C1C=C[C@]1(C)C2CC[C@@]2(C)[C@H](c3ccoc3)OC(=O)[C@H]3O[C@]321 (some centres not stated) | 4.98 µM

SMILES | AC50
CC(C)c1ccc(NC(=O)Nc2nc(C(N)COCc3ccccc3)cs2)cc1 (configuration not stated) | 1.78 µM
C[C@@H]1CN([C@H](C)CO)C(=O)c2c(c3ccccc3n2C)-c2ccccc2CO[C@H]1CN(C)C(=O)c1cc(Cl)cc(Cl)c1 | > 20 µM (inactive)
O=C(C1CCCC1)N1CC(=O)N2[C@@H](CO)[C@@H](c3ccc(C#CCc4ccccc4)cc3)[C@@H]2C1 | 1.7 µM
Cc1ccc(S(=O)(=O)NC(C(=O)Oc2cc3oc(=O)cc(C)c3cc2Cl)C(C)C)cc1 (configuration not stated) | 9.41 µM
Cc1[nH]c2ccccc2c1C(c1ccccn1)N1CCC(C(N)=O)CC1 (configuration not stated) | 6 µM
Cc1ccc(N2CC(C(=O)Nc3nccs3)CC2=O)cc1Cl (configuration not stated) | 8.13 µM
N#Cc1cccc(-c2ccc([C@@H]3[C@@H]4CN(S(=O)(=O)c5ccc(-c6ccccc6)cc5)C[C@H]3N4)cc2)c1 | 11.4 µM
COC(=O)c1ccc2nc(NC(=O)C(C)(C)C)sc2c1 | 2.32 µM
CC1=CC2OC3CC4OC(=O)C=CC=CC(=O)OCCC(C)C(O)C(=O)OCC2(CC1O)C4(C)C31CO1 (configuration not stated) | 0.00511 µM
CSc1ccc2c(c1)N(CCC1CCCCN1C)c1ccccc1S2 (configuration not stated) | 6.07 µM
O=C(CCN1CCC(c2ccccc2)C1)c1ccc2c(c1)OCCO2 (configuration not stated) | 6.18 µM
COc1cccc(S(=O)(=O)N(C)C[C@@H]2OCc3ccccc3-c3c(n(C)c4ccccc34)C(=O)N([C@@H](C)CO)C[C@@H]2C)c1 | > 20 µM (inactive)
OC1CC2CCC(C1)N2CCCN1c2ccccc2Sc2ccc(Cl)cc21 (configuration not stated) | 9.1 µM
C[C@H](CO)N1C[C@H](C)[C@@H](CN(C)Cc2ccc(Cl)c(Cl)c2)OCCCC[C@H](C)Oc2ccc(NS(=O)(=O)c3cccs3)cc2C1=O | 8.48 µM
COc1ccc(C#Cc2ccc([C@@H]3[C@H](CO)N4CCCCN(C(=O)Nc5cccc(F)c5)C[C@@H]34)cc2)cc1 | 4.57 µM
COc1ccc(S(=O)(=O)Nc2ccc3c(c2)C(=O)N([C@@H](C)CO)C[C@H](C)[C@@H](CN(C)Cc2ccc(C(F)(F)F)cc2)OCCCC[C@@H](C)O3)cc1 | 7.51 µM
